In ChEMBL document CHEMBL4417640, “Inhibitors of mtor-deptor interactions and methods of use thereof” (2018):
Values belong to the compound of their own block, whether it stands above or below them. Activity calls are given as the source filed them. The calls are words filed in the database; no cut-off is given here.

Tests used:
[1] = target: DEPTOR/mTOR (Homo sapiens) (UniProt P42345+Q8TB45); test: Inhibition of DEPTOR-mTOR interaction (unknown origin) by yeast-2-hybrid screen based assay; type: protein assay
DEPTOR/mTOR (Homo sapiens), sequence (Q8TB45 whole entry, looked up, other chains not shown, the tested form may be a part): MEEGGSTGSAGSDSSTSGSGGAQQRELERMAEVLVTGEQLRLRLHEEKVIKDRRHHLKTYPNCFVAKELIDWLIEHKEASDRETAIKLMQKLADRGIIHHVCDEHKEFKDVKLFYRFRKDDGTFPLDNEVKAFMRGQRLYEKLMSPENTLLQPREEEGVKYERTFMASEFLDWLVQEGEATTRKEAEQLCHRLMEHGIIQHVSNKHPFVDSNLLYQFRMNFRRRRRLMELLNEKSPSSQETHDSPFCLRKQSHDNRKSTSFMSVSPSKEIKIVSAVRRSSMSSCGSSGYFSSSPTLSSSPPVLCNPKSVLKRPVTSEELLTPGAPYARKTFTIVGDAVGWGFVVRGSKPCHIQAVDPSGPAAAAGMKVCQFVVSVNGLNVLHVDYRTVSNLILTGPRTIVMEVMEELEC

[2] = target: T1, DEP domain-containing mTOR-interacting protein (Homo sapiens, UniProt Q8TB45); test: Inhibition of DEPTOR in human RPMI8226 cells assessed as increase in mTOR kinase activity by measuring induction of p70 phosphorylation incubated for 6 hrs by Western blot analysis; type: cell-based
T1 sequence (Q8TB45 whole entry, the tested form may be a part): as the sequence (Q8TB45 whole entry, looked up, other chains not shown, the tested form may be a part) above

MM1.S [3] = test: Cytotoxicity in human MM1S cells incubated for 48 hrs by MTT assay; type: functional, cell-based
[4] = target: T1, DEP domain-containing mTOR-interacting protein; test: Inhibition of DEPTOR in human RPMI8226 cells assessed as increase in mTOR kinase activity by measuring induction of p21 expression at 0.25 to 1 uM uM by Western blot analysis; type: cell-based
RPMI-8226 [5] = test: Induction of apoptosis in human RPMI8226 cells at 0.12 to 2 uM by flow cytometry; type: functional, cell-based
[6] = Therapeutic index, ratio of IC50 for cytotoxicity against human PBL cells incubated for 48 hrs by MTT assay to IC50 for cytotoxicity against human MM1S cells incubated for 48 hrs by MTT assay; type: toxicity, cell-based; conditions: PBL cells versus MM1S cells, read-out: Ratio IC50
[7] = target: T1, DEP domain-containing mTOR-interacting protein; test: Inhibition of DEPTOR in human RPMI8226 cells assessed as induction of mTORC1 activation at 0.5 uM incubated for 6 hrs co-immunoprecipitation assay; type: cell-based
MM1.S [8] = test: Cytotoxicity in human MM1S cells at 0.25 to 2 uM incubated for 48 hrs in presence of RAPTOR siRNA by MTT assay; type: functional, cell-based
OPM-2 [9] = test: Cytotoxicity in human OPM2 cells incubated for 48 hrs by MTT assay; type: functional, cell-based; conditions: OPM-2, 48 h
OPM-2 [10] = test: Induction of apoptosis in human OPM2 cells at 0.12 to 2 uM incubated for 48 hrs incubated for 48 hrs by flow cytometry; type: functional, cell-based
NCI-H929 = test: Induction of apoptosis in human NCI-H929 cells at 0.12 to 2 uM incubated for 48 hrs by flow cytometry; type: functional, cell-based
[11] = target: T1, DEP domain-containing mTOR-interacting protein; test: Induction of proteasome-dependent DEPTOR degradation in human RPMI8226 cells at 0.5 to 2 uM; type: cell-based
RPMI-8226 [12] = test: Cytotoxicity in human RPMI8226 cells transfected with DEPTOR at 0.25 to 1 uM incubated for 48 hrs by MTT assay; type: functional, cell-based
RPMI-8226 [13] = test: Induction of apoptosis in human RPMI8226 cells transfected with DEPTOR at 0.12 to 1 uM by flow cytometry; type: functional, cell-based
RPMI-8226 [14] = test: Antitumor activity against human RPMI8226 cells xenografted in mouse assessed as reduction in tumor volume at 20 mg/kg, ip dosed daily for 4 days; type: functional, organism-based
RPMI-8226 [15] = test: Toxicity in human RPMI8226 cells xenografted in mouse assessed as effect on normal WBC counts at 20 mg/kg, ip dosed daily for 4 days; type: organism-based; conditions: in vivo, 96 h
RPMI-8226 [16] = test: Toxicity in human RPMI8226 cells xenografted in mouse assessed as effect on hematocrit at 20 mg/kg, ip dosed daily for 4 days; type: organism-based; conditions: in vivo, 96 h
RPMI-8226 [17] = test: Toxicity in human RPMI8226 cells xenografted in mouse assessed as effect on hemoglobin concentration at 20 mg/kg, ip dosed daily for 4 days; type: organism-based; conditions: in vivo, 96 h
RPMI-8226 [18] = test: Toxicity in human RPMI8226 cells xenografted in mouse assessed as effect on platelet count at 20 mg/kg, ip dosed daily for 4 days; type: organism-based; conditions: in vivo, 96 h
[19] = target: T1, DEP domain-containing mTOR-interacting protein; test: Inhibition of DEPTOR in human RPMI8226 cells assessed as increase in mTOR kinase activity by measuring induction of p21 expression at 0.5 to 2 uM uM by Western blot analysis; type: cell-based
MM1.S [20] = test: Cytotoxicity in human MM1S cells at 0.12 to 1 uM incubated for 48 hrs in presence of RAPTOR siRNA by MTT assay; type: functional, cell-based
[21] = Toxicity in normal hematopoietic colony forming cells (unknown origin) assessed as reduction in colony formation at 10 uM
[22] = target: T1, DEP domain-containing mTOR-interacting protein; test: Inhibition of DEPTOR in human RPMI8226 cells assessed as induction of mTORC1 activation at 1 uM incubated for 6 hrs co-immunoprecipitation assay; type: cell-based
RPMI-8226 [23] = test: Induction of p70 degradation in human RPMI8226 cells at 1 to 2 uM incubated for 6 hrs by Western blot analysis; type: cell-based; conditions: rpmi-8226, 6 h
RPMI-8226 [24] = test: Toxicity in human RPMI8226 cells at 1 to 2 uM incubated for 6 hrs; type: cell-based; conditions: rpmi-8226, 6 h
RPMI-8226 [25] = test: Toxicity in human RPMI8226 cells at 0.5 uM incubated for 6 hrs; type: cell-based; conditions: rpmi-8226, 6 h
RPMI-8226 [26] = test: Toxicity in human RPMI8226 cells at 0.05 to 0.2 uM incubated for 6 hrs; type: cell-based; conditions: rpmi-8226, 6 h
[27] = Toxicity in normal hematopoietic colony forming cells (unknown origin) assessed as reduction in colony formation at 0.5 uM

inhibition activity call (active/inactive) [1]: Active
Structure (SMILES): O=C(O)c1ccc2c(c1)CCC2

IC50 [2]: > 5000 nM
Structure (SMILES): ClC1=C(Cl)C(Cl)=C(Cl)C1=NNC1CCCCC1
IC50 (MM1.S [3]): > 3000 nM

inhibition [4]: Active | mTORC1 activation (active/not active) [7]: Active | Activity [11]: Active
Structure (SMILES): FC(F)(F)c1cccc(NN=C2C(Cl)=C(Cl)C(Cl)=C2Cl)c1
Activity (RPMI-8226 [5]): Active | selectivity ratio at 48 h [6]: 136 | Activity (MM1.S [8]): inactive | IC50 (OPM-2 [9]): 300 nM | Activity (OPM-2 [10]): Active | Activity (NCI-H929): Active | Activity (RPMI-8226 [12]): inactive | Activity (RPMI-8226 [13]): inactive | Activity (RPMI-8226 [14]): Active | Activity (RPMI-8226 [15]): Toxic | Activity (RPMI-8226 [16]): Non-Toxic | Activity (RPMI-8226 [17]): Non-Toxic | Activity (RPMI-8226 [18]): Non-Toxic

Structure (SMILES): Fc1ccccc1NN=C1C(Cl)=C(Cl)C(Cl)=C1Cl
IC50 (MM1.S [3]): > 3000 nM

IC50 [2]: > 5000 nM
Structure (SMILES): CC(C)(C)NN=C1C(Cl)=C(Cl)C(Cl)=C1Cl
IC50 (MM1.S [3]): > 3000 nM

inhibition [19]: Active | mTORC1 activation (active/not active) [7]: inactive
Structure (SMILES): Fc1ccc(NN=C2C(Cl)=C(Cl)C(Cl)=C2Cl)cc1
selectivity ratio at 48 h [6]: 33 | Activity (MM1.S [20]): inactive

inhibition activity call (active/inactive) [1]: Active
Structure (SMILES): CCCCCCCCNS(=O)(=O)c1ccccc1

Structure (SMILES): CC(C)(C)OC(=O)NN=C1c2ccccc2-c2ccccc21
IC50 (MM1.S [3]): > 5000 nM

Structure (SMILES): NN=c1c2ccccc2oc2ccccc12
IC50 (MM1.S [3]): > 5000 nM

Structure (SMILES): NN=C(c1ccccc1)c1ccccc1
IC50 (MM1.S [3]): > 5000 nM

Structure (SMILES): CN(C)N=C1C(Cl)=C(Cl)C(Cl)=C1Cl
IC50 (MM1.S [3]): > 3000 nM

Structure (SMILES): NN=C1C(Cl)=C(Cl)C(Cl)=C1Cl
inhibition activity call (active/inactive) [1]: Active | Activity [21]: Toxic | IC50 [2]: 1300 nM | IC50 (MM1.S [3]): 3000 to 3300 nM | Activity (RPMI-8226 [5]): Active | selectivity ratio at 48 h [6]: 14.3 | inhibition [22]: Active | mTORC1 activation (active/not active) [7]: inactive | IC50 (OPM-2 [9]): 4000 nM | Activity (OPM-2 [10]): Active | Activity (NCI-H929): Active | Activity (RPMI-8226 [14]): Active

Structure (SMILES): ClC1=C(Cl)C(Cl)=C(Cl)C1=NN(c1ccccc1)c1ccccc1
IC50 (MM1.S [3]): > 3000 nM

Structure (SMILES): O=C(NN=C1C(Cl)=C(Cl)C(Cl)=C1Cl)c1ccccc1
Activity (RPMI-8226 [23]): Toxic | Activity (RPMI-8226 [24]): Toxic | Activity (RPMI-8226 [25]): Toxic | Activity (RPMI-8226 [26]): Non-Toxic

inhibition activity call (active/inactive) [1]: Active
Structure (SMILES): CN(C)c1ccc(/C=C2\C=Cc3ccccc32)cc1F
Activity [27]: Toxic

inhibition [4]: Active
Structure (SMILES): CC(C)(C)C(=O)NN=C1C(Cl)=C(Cl)C(Cl)=C1Cl
Activity (RPMI-8226 [5]): Active | selectivity ratio at 48 h [6]: 14

inhibition [19]: Active | mTORC1 activation (active/not active) [7]: inactive
Structure (SMILES): CC(C)(C)OC(=O)NN=C1C(Cl)=C(Cl)C(Cl)=C1Cl
Activity (RPMI-8226 [5]): Active | selectivity ratio at 48 h [6]: 45.5 | Activity (MM1.S [20]): inactive

Structure (SMILES): Fc1cccc(NN=C2c3ccccc3-c3ccccc32)c1
IC50 (MM1.S [3]): > 5000 nM

Structure (SMILES): COc1cccc(NN=C2C(Cl)=C(Cl)C(Cl)=C2Cl)c1
IC50 (MM1.S [3]): > 3000 nM

inhibition [19]: Active
Structure (SMILES): O=C(c1ccc(F)cc1)N(N=C1C(Cl)=C(Cl)C(Cl)=C1Cl)C(=O)c1ccc(F)cc1
Activity (RPMI-8226 [5]): Active | selectivity ratio at 48 h [6]: 10

Structure (SMILES): Cc1cccc(NN=C2C(Cl)=C(Cl)C(Cl)=C2Cl)c1
IC50 (MM1.S [3]): > 3000 nM
